Molecular target: T1, Cor a 1.0401 (Corylus avellana, UniProt Q9SWR4)
T1 construct: gene CORA1.0401; tagless full-length recombinant, 160 aa, E. coli (pET11a, codon-optimised synthetic gene), 15N or 13C/15N labelled
T1 sequence (Q9SWR4 2-161 limits assumed): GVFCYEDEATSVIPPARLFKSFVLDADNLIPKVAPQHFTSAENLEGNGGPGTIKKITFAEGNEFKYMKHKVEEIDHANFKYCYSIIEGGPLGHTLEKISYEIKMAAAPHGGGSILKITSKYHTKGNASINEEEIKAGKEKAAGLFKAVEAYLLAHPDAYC
Assay: 1H, […] HSQC NMR titration
Type: binding
Settings: 298 K, 60 uM protein, up to equimolar ligand, 2.2% DMSO; hydrophobic pocket

SMILES: O=c1c(O)c(-c2ccc(O)c(O)c2)oc2cc(O)cc(O)c12 [quercetin]
- 1H,15N HSQC NMR titration: amino acids that were strongest affected by quercetin binding are highlighted in red
